According to patent publication US6608086B2, “Dihydropyridines and new uses thereof” (Synaptic Pharmaceutical Corporation, priority 1993, dated 2003):
Structures can show the parent of a compound that is named as a salt.

SMILES | melting point
COC(=O)C1=C(C)NC(C)=C(C(=O)N(C)CCCN2CCC(c3ccccc3)(c3ccccc3)CC2)C1c1ccc([N+](=O)[O-])cc1 (centres unmarked) (as salt: hydrochloride) (hydrate or solvate) [Example 46, hydrochloride hemihydrate] | 179 to 180 °C
CC(=O)C1=C(C)NC(C)=C(C(=O)NCCCN2CCC(c3ccccc3)(c3ccccc3)CC2)C1c1ccc([N+](=O)[O-])cc1 (centres unmarked) (as salt: hydrochloride) (hydrate or solvate) [Example 47, 5-Acetyl-1,4-dihydro-2,6-dimethyl-4-(4-nitrophenyl)-3-{N-[3-(4,4-diphenylpiperidin-1-yl)propyl]}carboxamidopyridine] | 173 to 174 °C
COC(=O)C1=C(C)NC(C)=C(C(=O)OCCCN2CCC(c3ccccc3)CC2)C1c1ccc([N+](=O)[O-])cc1 (centres unmarked) (as salt: hydrochloride) (hydrate or solvate) [Example 48, 1,4-Dihydro-5-methazycarbonyl-2,6-dimethyl-4-(4-nitrophenyl)-3-[3-(4-phenylpiperidin-1-yl)propoxy]}carbonylpyridine hydrochloride hydrate] | 139 to 140 °C
COC(=O)C1=C(C)NC(C)=C(C(=O)OCCCN2CCCCC2)C1c1ccc([N+](=O)[O-])cc1 (centres unmarked) (as salt: hydrochloride) (hydrate or solvate) [Example 50, 1,4-Dihydro-5-methoxycarbonyl-2,6-dimethyl-4-(4-nitrophenyl)-3-[3-(piperidin-1-yl)propoxy]carbonylpyridine hydrochloride etherate] | 128 to 129 °C
COC(=O)C1=C(C)NC(C)=C(C(=O)NCCCN2CCCCC2)C1c1ccc([N+](=O)[O-])cc1 (centres unmarked) (as salt: hydrochloride) (hydrate or solvate) [Example 51, 1,4-Dihydro-3-methoxycarbonyl-2,6-dimethyl-4-(4-nitrophenyl)-5-{N-[3-(piperidin-1-yl)propyl]}carboxamidopyridine hydrochloride etherate] | 150 to 150.5 °C
COC(=O)C1=C(C)NC(C)=C(C(=O)NCCN2CCC(c3ccccc3)(c3ccccc3)CC2)C1c1ccc([N+](=O)[O-])cc1 (centres unmarked) (as salt: hydrochloride) (hydrate or solvate) [Example 52, 1,4-Dihydro-3-methoxycarbonyl-2,6-dimethyl-4-(4-nitrophenyl)-5-{N-[2-(4,4-diphenylpiperidin-1-yl)ethyl]}carboxamidopyridine hydrochloride hemihydrate] | 170 to 171 °C
CC1=C(C(N)=O)C(c2ccc([N+](=O)[O-])cc2)C(C(=O)NCCN2CCC(c3ccccc3)(c3ccccc3)CC2)=C(C)N1 (centres unmarked) (as salt: hydrochloride) (hydrate or solvate) [Example 54, 5-Carboxamide-1,4-dihydro-2,6-dimethyl-4-(4-nitrophenyl)-3-{N-[2-(4,4-diphenylpiperidin-1-yl)ethyl]}carboxamidopyridine hydrochloride hydrate] | 193 to 194 °C
COC(=O)C1=C(C)NC(C)=C(C(=O)NCCCN2CCc3cc(OC)c(OC)cc3C2)C1c1ccc([N+](=O)[O-])cc1 (centres unmarked) (as salt: hydrochloride) (hydrate or solvate) [Example 57, 1,4-Dihydro-3-methoxycarbonyl-5-{N-[3-(1,2,3,4-tetrahydro-6,7-dimethoxyisoquinolin-2-yl)propyl]}carboxamido-2,6-dimethyl-4-(4-nitrophenyl)pyridine hydrochloride hydrate] | 161 to 162 °C
COC(=O)C1=C(C)NC(C)=C(C(=O)NCCCN2CCc3ccccc3C2)C1c1ccc([N+](=O)[O-])cc1 (centres unmarked) (as salt: hydrochloride) (hydrate or solvate) [Example 59, 1,4-Dihydro-5-{N-[3-(1,2,3,4-tetrahydroisoquinolin-2-yl)propyl]}carboxamido-3-methoxycarbonyl-2,6-dimethyl-4-(4-nitrophenyl)pyridine hydrochloride hydrate] | 145 to 146 °C
COC(=O)C1=C(C)NC(c2ccoc2)=C(C(=O)NCCCN2CCC(c3ccccc3)CC2)C1c1ccc([N+](=O)[O-])cc1 (centres unmarked) (as salt: hydrochloride) (hydrate or solvate) [Example 65, 2-(Furan-3-yl)-1,4-dihydro-5-methoxycarbonyl-6-methyl-4-(4-nitrophenyl)-5-{N-[3-(4-phenylpiperidin-1-yl)propyl]}carboxamidopyridine hydrochloride hydrate] | 205 to 210 °C (dec.)
CCC1=C(C(=O)NCCCN2CCC(c3ccccc3)CC2)C(c2ccc([N+](=O)[O-])cc2)C(C(=O)OC)=C(C)N1 (centres unmarked) (as salt: hydrochloride) (hydrate or solvate) [Example 74, 2-Ethyl-1,4-dihydro-5-methoxycarbonyl-6-methyl-4-(4-nitro)phenyl-3-(N-(3-(4-phenylpiperidin-1-yl)propyl)) carboxamidopyridine hydrochloride hydrate] | 209 to 214 °C (dec.)
COC(=O)C1=C(C)NC(c2ccccc2)=C(C(=O)NCCCN2CCC(c3ccccc3)(c3ccccc3)CC2)C1c1ccc([N+](=O)[O-])cc1 (centres unmarked) (as salt: hydrochloride) (hydrate or solvate) [Example 78, 1,4-Dihydro-5-methoxycarbonyl-6-methyl-4-(4-nitro)phenyl-2-phenyl-3-(N-(3-(4,4-diphenylpiperidin-1-yl)propyl))carboxamidopyridine hydrochloride hydrate] | 210 to 215 °C (dec.)
CCC1=C(C(N)=O)C(c2ccc([N+](=O)[O-])cc2)C(C(=O)NCCCN2CCC(O)(c3ccccc3)CC2)=C(CC)N1 (centres unmarked) (as salt: hydrochloride) (hydrate or solvate) [Example 100, 5-Carboxamido-2,6-diethyl-1,4-dihydro-3-{N-(3-(4-hydroxy-4-phenylpiperidin-1-yl)propyl]}carboxamido-4-(4-nitrophenyl)pyridine hydrochloride hydrate] | 165 °C (dec.)
CCC1=C(C(N)=O)C(c2ccc([N+](=O)[O-])cc2)C(C(=O)NCCCN2CCN(c3ccccc3)CC2)=C(CC)N1 (centres unmarked) (as salt: hydrochloride) (hydrate or solvate) [Example 104, 5-Carboxamido-2,6-diethyl-1,4-dihydro-4-(4-nitrophenyl)-3-{N-[3-(4-phenylpiperazin-1-yl)propyl]}carboxamido-pyridine hydrochloride hydrate] | 160 °C (dec.)
CCC1=C(C(N)=O)C(c2ccc([N+](=O)[O-])cc2)C(C(=O)NCCCN2CCC3(CC2)C(=O)NCN3c2ccccc2)=C(CC)N1 (centres unmarked) (as salt: hydrochloride) (hydrate or solvate) [Example 105, 5-Carboxamido-2,6-diethyl-1,4-dihydro-4-(4-nitrophenyl)-3-{N-[3-(1-phenyl-4-oxo-1,3,8-triazaspiro[4.3]decan-8-yl)propyl]}carboxamidopyridine hydrochloride hydrate] | 187 °C (dec.)
CCC1=C(C(N)=O)C(c2ccc([N+](=O)[O-])cc2)C(C(=O)NCCCN2CCC(C)(c3ccccc3)CC2)=C(CC)N1 (centres unmarked) (as salt: hydrochloride) (hydrate or solvate) [Example 106, 5-Carboxamido-2,6-diethyl-1,4-dihydro-3-{N-[3-(4-Methyl-4-phenylpiperidin-1-yl)propyl]}carboxamido-4-(4-nitrophenyl)pyridine hydrochloride hydrate] | 166 °C (dec.)
CC1=C(C#N)C(c2ccc([N+](=O)[O-])cc2)C(C(=O)NCCCN2CCC(c3ccccc3)(c3ccccc3)CC2)=C(C)N1 (centres unmarked) (as salt: hydrochloride) [Example 37] | 252 °C (dec.)
COc1cc2c(cc1OC)CN(CCCNC(=O)C1=C(C)NC(C)=C(C(N)=O)C1c1ccc([N+](=O)[O-])cc1)CC2 (centres unmarked) (as salt: hydrochloride) [Example 58, 5-Carboxamido-1,4-dihydro-3-{N-[3-(1,2,3,4-tetrahydro-6,7-dimethoxyisoquinolin-2-yl)propyl]}carboxamido-2,6-dimethyl-4-(4-nitrophenyl)pyridine hydrochloride] | 180 to 181 °C
CCC1=C(C(=O)NC2CCN(Cc3ccccc3)CC2)C(c2ccc([N+](=O)[O-])cc2)C(C(=O)OC)=C(C)N1 (centres unmarked) (as salt: hydrochloride) [Example 75, 2-Ethyl-1,4-dihydro-5-methoxycarbonyl-6-methyl-4-(4-nitro)phenyl-3-(N-(N-phenylmethyl)piperidin-4-yl)carboxamidopyridine hydrochloride] | 221 to 224 °C (dec.)
CCC1=C(C(=O)NCCCN2CCC(c3ccccc3)(c3ccccc3)CC2)C(c2ccc([N+](=O)[O-])cc2)C(C(N)=O)=C(C)N1 (centres unmarked) (as salt: hydrochloride) [Example 81, 5-carboxamido-2-ethyl-1,4-dihydro-6-methyl-4-(4-nitro)phenyl-3-(N-(3-(4,4-diphenylpiperidin-1-yl)propyl))carboxamidopyridine hydrochloride] | 243 to 248 °C (dec.)
COc1ccc(C2(c3ccccc3)CCN(CCCNC(=O)C3=C(C)NC(C)=C(C(N)=O)C3c3ccc([N+](=O)[O-])cc3)CC2)cc1 (centres unmarked) (as salt: hydrochloride) [Example 98, 5-Carboxamido-1,4-dihydro-3-{N-[3-(4-(4-methoxyphenyl)-4-phenylpiperidin-1-yl)propyl]}carboxamido-2,6-dimethyl-4-(4-nitrophenyl)pyridine hydrochloride] | 185 °C (dec.)
CCC1=C(C(N)=O)C(c2ccc([N+](=O)[O-])cc2)C(C(=O)NCCCN2CCC(c3ccc(OC)cc3)(c3ccc(OC)cc3)CC2)=C(CC)N1 (centres unmarked) (as salt: hydrochloride) [Example 103, 5-Carboxamido-2,6-diethyl-1,4-dihydro-3-{N-[3-(4,4-bis-(4-methoxyphenyl)piperidin-1-yl)propyl]}carboxamido}-4-(4-nitrophenyl)pyridine hydrochloride] | 175 °C (dec.)
CCC1=C(C(=O)NCCCN2CCC(c3ccccc3)(c3ccccc3)CC2)C(c2ccc([N+](=O)[O-])cc2)C(C(=O)NC)=C(COCCN=[N+]=[N-])N1 (centres unmarked) (as salt: hydrochloride) [Example 151, 2-((2-Azidoethyl)oxy)methyl-6-ethyl-1,4-dihydro-3-(N-methyl)carboxamido-4-(4-nitro)phenyl-5-(N-(3-(4,4-diphenylpiperidin-1-yl)propyl))carboxamidopyridine] | 200 °C (dec.)
